This note sets out measurements from ChEMBL document CHEMBL1201862, “PubChem BioAssay data set” (2004).

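Test compounds were applied to cells in 96-well plates for 48 hours at 5 doses. Here, GI50 denotes the concentration required for 50% inhibition of growth.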 The source made the active and inactive calls. No stated cut-off is given here; in the data, active = GI50 up to about 1.1 µM and inactive = higher. A value given as a limit tells only on which side of the number the result lay.

Some test systems named below: U-251; SK-MEL-2; HCT-116; NCI-H460; A498; SF-268; KM12; IGROV-1; EKVX; SW-620; A549; UACC-257; OVCAR-8; HCC 2998; MDA-N; BT-549; MDA-MB-231; SK-MEL-5; MDA-MB-435.
Common to all, as to assay: DTP human tumour cell line panel, 48 h

As for `CCOC(=O)C(=O)C1C(=O)Nc2ccccc21` (stereo unspecified), the GI50 in the assay on U-251, in the assay on SK-MEL-2, in the assay on HCT-116, in the assay on NCI-H460, with A498 and with SF-268 was > 100 µM (inactive) throughout. Also, the GI50 in the assay on KM12, in the assay on IGROV-1, in the assay on EKVX, with SW-620, in the assay on A549 and in the assay with UACC-257 was > 100 µM (inactive) throughout. For the same molecule, the GI50 in the assay with OVCAR-8 and in the assay on HCC 2998 was > 100 µM (inactive) each time.
Regarding `CC(=O)Oc1cc2c(cc1OC(C)=O)[C@H]1CC[C@]3(C)[C@@H](OC(C)=O)CC[C@H]3[C@@H]1CC2`, the GI50 (usually the concentration giving 50% growth inhibition) in the assay with U-251 was 4.95 µM (inactive); in the assay with SK-MEL-2, 3.06 µM (inactive); in the assay on MDA-N, 0.773 µM (active); with BT-549, 1.99 µM (inactive); in the assay with NCI-H460, 8.57 µM (inactive); with MDA-MB-231, 7.41 µM (inactive). The GI50 is 11.8 µM (inactive) with A498; 4.66 µM (inactive) in the assay with SF-268; 8.91 µM (inactive) in the assay with KM12; 3.77 µM (inactive) in the assay on IGROV-1; 2.56 µM (inactive) in the assay on EKVX; 1.9 µM (inactive) with SW-620. In addition, the GI50 with SK-MEL-5 was 5.62 µM (inactive); in the assay with A549 it was 7.96 µM (inactive); in the assay with UACC-257, 9.66 µM (inactive); in the assay with OVCAR-8, 6.7 µM (inactive); in the assay on HCC 2998, 7.71 µM (inactive).
On to `Clc1ccc(NCNC2Nc3ccccc3N2)cc1Cl`, for which the GI50 in the assay with U-251 is 52.5 µM (inactive); in the assay with SK-MEL-2 it was 32 µM (inactive); in the assay with MDA-N, 30.8 µM (inactive); with MDA-MB-435 it was 20.6 µM (inactive); in the assay with HCT-116, 36.7 µM (inactive); with NCI-H460, 24.2 µM (inactive). In addition, the GI50 was 16.7 µM (inactive) with MDA-MB-231; > 100 µM (inactive) in the assay on A498; 28.4 µM (inactive) with SF-268; 11.9 µM (inactive) in the assay with KM12; 63.7 µM (inactive) with EKVX; 27.6 µM (inactive) in the assay with SW-620. Further, the GI50 with SK-MEL-5 was 17.1 µM (inactive); in the assay on A549 it was 56.9 µM (inactive); with UACC-257, > 100 µM (inactive); in the assay with OVCAR-8, 13.1 µM (inactive); in the assay with HCC 2998, 73.6 µM (inactive).
`CCN(CC)C(=O)C1=C(C)NC(C)=C(C(=O)N(CC)CC)C1`: the GI50 with U-251 is > 100 µM (inactive); in the assay with SK-MEL-2, > 100 µM (inactive); with MDA-N, > 100 µM (inactive); in the assay with MDA-MB-435 it was 81.1 µM (inactive); in the assay on HCT-116, > 100 µM (inactive); with NCI-H460 it was > 100 µM (inactive). The GI50 with MDA-MB-231 is 39.4 µM (inactive); with A498, > 100 µM (inactive); with SF-268, 53 µM (inactive); in the assay with KM12, > 100 µM (inactive); in the assay on IGROV-1, > 100 µM (inactive); in the assay on EKVX, > 100 µM (inactive). Further, the GI50 in the assay with SW-620, in the assay on SK-MEL-5, with A549, with UACC-257 and in the assay with HCC 2998 was > 100 µM (inactive) in each case.
For the molecule `CC1(C)C=[N+]([O-])C(C)(C)N1`, the GI50 in the assay on U-251, in the assay on SK-MEL-2, with MDA-N, with MDA-MB-435, in the assay with HCT-116 and in the assay on NCI-H460 was > 100 µM (inactive) in each case. Further, the GI50 in the assay on MDA-MB-231, with SF-268, in the assay on KM12, in the assay with IGROV-1, with EKVX and with SW-620 was > 100 µM (inactive) in each case. The GI50 with SK-MEL-5, in the assay on A549, in the assay on UACC-257, with OVCAR-8 and with HCC 2998 was > 100 µM (inactive) throughout.
On to `COc1ccccc1-n1cnc2c1=NC(C)(C)NC=2C(N)=O`, for which the GI50 with U-251, in the assay with SK-MEL-2, with MDA-N, in the assay on MDA-MB-435, in the assay with HCT-116 and in the assay with NCI-H460 was > 100 µM (inactive) throughout. Besides, the GI50 in the assay with MDA-MB-231, in the assay on A498, with SF-268, in the assay on KM12, with IGROV-1 and with EKVX was > 100 µM (inactive) each time. Moreover, the GI50 in the assay on SW-620, in the assay with SK-MEL-5, in the assay with A549, in the assay with UACC-257, in the assay on OVCAR-8 and in the assay with HCC 2998 was > 100 µM (inactive) throughout.
On to `C[n+]1c2ccc(Cl)cc2nc2cc(-c3ccccc3)ccc21`, for which the GI50 was 5.21 µM (inactive) in the assay with U-251; 19.8 µM (inactive) in the assay on SK-MEL-2; 11.1 µM (inactive) in the assay on BT-549; 1.77 µM (inactive) with MDA-MB-435; 16.7 µM (inactive) with HCT-116; 14.9 µM (inactive) in the assay with NCI-H460. Also, the GI50 in the assay with MDA-MB-231 is 8.63 µM (inactive); in the assay on SF-268 it was 14.7 µM (inactive); in the assay with KM12 it was 4.65 µM (inactive); in the assay on IGROV-1 it was 10 µM (inactive); in the assay with EKVX, 10.8 µM (inactive); in the assay with SW-620, 4.7 µM (inactive). Also, the GI50 in the assay on SK-MEL-5 is 6.68 µM (inactive); with A549, 4.81 µM (inactive); in the assay with UACC-257, 15.6 µM (inactive); with OVCAR-8 it was 3.67 µM (inactive); with HCC 2998 it was 4.95 µM (inactive).
For the molecule `Cc1ccc(S(=O)(=O)NNS(C)(=O)=O)cc1`, the GI50 with U-251, in the assay with SK-MEL-2, in the assay on HCT-116, in the assay with NCI-H460, with SF-268 and with KM12 was > 100 µM (inactive) each time. For the same molecule, the GI50 in the assay on IGROV-1, in the assay on EKVX, with SW-620, with SK-MEL-5, in the assay on A549 and in the assay on UACC-257 was > 100 µM (inactive) each time. In addition, the GI50 with OVCAR-8 and in the assay with HCC 2998 was > 100 µM (inactive) throughout.
As for `O=c1[nH]c2c(nc1NC13CC4CC(CC(C4)C1)C3)c(=O)oc1ccccc12`, the GI50 with U-251 was 16.6 µM (inactive); in the assay on SK-MEL-2 it was > 100 µM (inactive); with HCT-116, > 100 µM (inactive); with NCI-H460 it was 70.3 µM (inactive); in the assay with SF-268, > 100 µM (inactive); in the assay on KM12 it was > 100 µM (inactive). The GI50 was > 100 µM (inactive) in the assay on IGROV-1; > 100 µM (inactive) with EKVX; > 100 µM (inactive) with SW-620; 36.9 µM (inactive) in the assay on SK-MEL-5; 34 µM (inactive) in the assay with A549; > 100 µM (inactive) in the assay on UACC-257. The GI50 in the assay with OVCAR-8 was 32 µM (inactive); with HCC 2998, > 100 µM (inactive).
`CN(C)CCCNC(=O)c1cc(NC(=O)c2cc(NC(=O)[C@@H]3C[C@H]3C(=O)Nc3cc(C(=O)Nc4cc(C(=O)NCCCN(C)C)n(C)c4)n(C)c3)cn2C)cn1C`: the GI50 in the assay with U-251, with SK-MEL-2, in the assay on BT-549, in the assay on MDA-MB-435, in the assay with HCT-116 and in the assay with NCI-H460 was > 100 µM (inactive) each time. The GI50 in the assay with MDA-MB-231, in the assay with SF-268, with KM12, with IGROV-1, in the assay on EKVX and with SW-620 was > 100 µM (inactive) in each case. For the same molecule, the GI50 was > 100 µM (inactive) with SK-MEL-5; > 100 µM (inactive) with A549; > 100 µM (inactive) in the assay with UACC-257; > 100 µM (inactive) in the assay on OVCAR-8; 20.9 µM (inactive) in the assay on HCC 2998.
As for `NC(=O)N/N=C1/c2ccccc2-n2nccc21`, the GI50 with U-251 is > 100 µM (inactive); in the assay with SK-MEL-2 it was > 100 µM (inactive); in the assay on MDA-N, 43.1 µM (inactive); in the assay on MDA-MB-435 it was 57.4 µM (inactive); with HCT-116, 30.8 µM (inactive); with NCI-H460 it was 45.1 µM (inactive). Also, the GI50 in the assay on MDA-MB-231 was > 100 µM (inactive); with A498 it was 38.7 µM (inactive); with SF-268, 87.1 µM (inactive); in the assay on KM12 it was > 100 µM (inactive); in the assay on IGROV-1, 39.9 µM (inactive); in the assay with EKVX, > 100 µM (inactive). The GI50 in the assay on SW-620 is > 100 µM (inactive); in the assay on SK-MEL-5 it was 82.8 µM (inactive); in the assay with A549, 78.3 µM (inactive); with UACC-257, > 100 µM (inactive); in the assay with OVCAR-8, > 100 µM (inactive); in the assay with HCC 2998, 52.5 µM (inactive).
With `OB1OCc2ccccc21` [BENZOXABOROLE], the GI50 in the assay on U-251 is 62.7 µM (inactive); in the assay on SK-MEL-2, 37.2 µM (inactive); in the assay on BT-549 it was > 100 µM (inactive); with MDA-MB-435, 35.9 µM (inactive); with HCT-116, 44.4 µM (inactive); in the assay with NCI-H460, 34.7 µM (inactive). Moreover, the GI50 in the assay with MDA-MB-231 was 77.1 µM (inactive); in the assay on A498, 34.5 µM (inactive); with SF-268 it was 42.2 µM (inactive); in the assay on KM12 it was 65.9 µM (inactive); in the assay on IGROV-1, 35.2 µM (inactive); in the assay on SW-620 it was 30.7 µM (inactive). The GI50 is 46.9 µM (inactive) with SK-MEL-5, 33.8 µM (inactive) in the assay with A549, 28.6 µM (inactive) in the assay with UACC-257 and 31.1 µM (inactive) with OVCAR-8.
